{"source": "patent US20260042734A1", "about": "“HETEROCYCLIC RING-SUBSTITUTED AROMATIC COMPOUND, PREPARATION METHOD THEREFOR, AND USE THEREOF” (SHANGHAI HENLIUS BIOTECH, INC., priority 2023, published 2026)", "note": "pIC50: −log10 of the molar value.", "data": [{"target": "human Kv1.3 (hKv1.3) channels (Homo sapiens (Human), UniProt P22001)", "sequence (P22001 whole entry)": "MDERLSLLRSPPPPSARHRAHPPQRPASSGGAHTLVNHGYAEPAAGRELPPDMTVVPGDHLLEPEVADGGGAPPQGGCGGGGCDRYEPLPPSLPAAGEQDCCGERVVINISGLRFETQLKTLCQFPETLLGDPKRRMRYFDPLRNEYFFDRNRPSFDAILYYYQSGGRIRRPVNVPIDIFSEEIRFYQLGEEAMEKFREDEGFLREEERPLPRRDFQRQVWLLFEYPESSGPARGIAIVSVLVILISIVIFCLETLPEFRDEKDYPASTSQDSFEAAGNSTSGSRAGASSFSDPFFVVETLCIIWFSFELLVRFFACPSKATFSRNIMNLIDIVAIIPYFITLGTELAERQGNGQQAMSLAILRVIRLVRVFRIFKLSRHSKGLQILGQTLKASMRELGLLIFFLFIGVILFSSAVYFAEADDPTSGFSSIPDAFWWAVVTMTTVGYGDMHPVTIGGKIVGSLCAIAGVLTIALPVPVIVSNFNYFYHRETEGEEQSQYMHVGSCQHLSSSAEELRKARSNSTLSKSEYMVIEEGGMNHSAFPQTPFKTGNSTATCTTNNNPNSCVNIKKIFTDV", "test": "Electrophysiological (whole-cell patch clamp) determination of inhibitory activity on Kv1.3 channels", "type": "cell-based", "settings": "HEK293T cells expressing hKv1.3; Hill fit of peak current inhibition", "description": "(§1) Test Example 1: Determination of Inhibitory Activity of Compounds on Kv1.3 (hKv1.3) Channels\n(§2) Electrophysiological Testing\n(§3) Potassium currents were measured using HEK293T cells expressing human Kv1.3 (hKv1.3) channels.\n(§4) Prior to the start of electrophysiological experiments, Kv1.3 cell lines should be maintained within 70% of the maximum density in the logarithmic growth phase. All reagents should be pre-warmed to 37° C. before use. • 1) Aspirate the spent medium from the 6 cm culture dish. • 2) Add 1 mL of PBS, gently rock the dish to rinse the bottom, and then remove the PBS. • 3) Add 1 mL of trypsin, and gently rock the dish to ensure the trypsin covers all the cells. • 4) Incubate at 37° C. for 2-3 minutes, and then gently pipette the cells to suspend the adherent cells. • 5) Transfer the cell suspension to a new centrifuge tube and centrifuge at 1000 rpm for 5 minutes. Adjust the cell concentration to 2×10^3 cells/mL, and then seed 300 μL of the cell suspension into each well of a 24-well plate containing cell climbing slides. Perform patch clamp experiments after the cells adhered properly.\n(§5) The intracellular and extracellular solutions used were designed to mimic the cell physiological ionic composition.\n(§6) Kv1.3 extracellular solution: 137 mM NaCl, 1 mM MgCl2·6H2O, 4 mM KCl, 1.8 mM CaCl2·2H2O, 10 mM D-Glucose, 10 mM HEPES, pH adjusted to 7.4 with NaOH.\n(§7) Kv1.3 intracellular solution: 140 mM KCl, 10 mM EGTA, 5 mM MgCl2·6H2O, 10 mM HEPES, […], pH adjusted to 7.2 with KOH.\n(§8) Test Compound Dissolution\n(§9) • 1) The test compound was dissolved in DMSO to prepare a 30 mM stock solution. • 2) The stock solution of the test compound was serially diluted with DMSO to obtain secondary stock solutions at concentrations of 300 μM, 100 μM, 30 μM, 10 μM, and 3 μM. • 3) 10 μL of each secondary stock solution was diluted into 10 mL of extracellular solution to achieve final concentrations of 300 nM, 100 nM, 30 nM, 10 nM, and 3 nM for electrophysiological testing.\n(§10) Kv1.3 potassium current data were collected and stored on a computer using Patchmaster software via an EPC-10 amplifier. • 1) The cell climbing slide was removed from the cell culture dish using forceps, immersed with extracellular solution, and placed into the bath chamber on the stage of an inverted microscope. • 2) Glass micropipettes were pulled using a P-1000 micropipette puller, filled one-third of their volume with intracellular solution, and then mounted onto an electrode holder. • 3) Using a motorized micromanipulator (Scientifica-Double 1U), the recording electrode was brought into contact with the cell surface. […] The positive pressure was removed, and a negative pressure of 0.5 cm H2O was applied. It was observed that the sealing resistance increased rapidly until it reached the gigaseal. When the sealing resistance between the recording electrode and the cell membrane was >1 GΩ, negative pressure was applied to rupture the membrane to form the whole-cell recording mode. After the ruptured membrane stabilized, the membrane capacitance (Cs) and series resistance (Rs) were compensated. • 4) Stimulation procedure: the cell was voltage-clamped at −80 mV, depolarized to 40 mV for a duration of 200 ms, and then repolarized to −80 mV. Currents were recorded every 10 s. • 5) Kv1.3 potassium channel currents were recorded at room temperature prior to drug application. After the control current value reached a steady state (indicated by overlapping of the four most consecutive current traces), cumulative drug application was performed. The negative control (0.1% DMSO) was applied first, followed by […] of the drugs.\n(§11) Raw Kv1.3 current peak data were extracted from PatchMaster software. The current inhibition rate was calculated as follows: Peak current inhibition rate=((1−(Peak current compound)/(Peak current vehicle))). […]", "values": [{"compound": "OCCCN1C[C@H](c2c(O)ccc(Cl)c2Cl)CC1=S", "note": "[Compound 1-1, (S)-4-(2,3-Dichloro-6-hydroxyphenyl)-1-(3-hydroxypropyl)pyrrolidine-2-thione]", "pIC50": "8.00 to 8.30"}, {"compound": "OCC(F)(F)CN1C[C@H](c2c(O)ccc(Cl)c2Cl)CC1=S", "note": "[Compound 121-1, (S)-4-(2,3-Dichloro-6-hydroxyphenyl)-1-(2,2-difluoro-3-hydroxypropyl)pyrrolidine-2-thione]", "pIC50": "7.52 to 8.00"}, {"compound": "Oc1ccc(Cl)c(Cl)c1[C@@H]1CC(=S)N([C@H]2C[C@H](O)C2)C1", "note": "[Compound 124-1, (S)-4-(2,3-Dichloro-6-hydroxyphenyl)-1-((1r,3r)-3-hydroxycyclobutyl)pyrrolidine-2-thione]", "pIC50": "8.00 to 8.30"}, {"compound": "Oc1ccc(Cl)c(Cl)c1[C@@H]1CC(=S)N(C[C@H]2C[C@H](O)C2)C1", "note": "[Compound 129-1, (S)-4-(2,3-Dichloro-6-hydroxyphenyl)-1-(((1r,3r)-3-hydroxycyclobutyl)methyl)pyrrolidine-2-thione]", "pIC50": "≥ 8.30"}, {"compound": "OCCCCN1C[C@H](c2c(O)ccc(Cl)c2Cl)CC1=S", "note": "[Compound 130-1, (S)-4-(2,3-Dichloro-6-hydroxyphenyl)-1-(4-hydroxybutyl)pyrrolidine-2-thione]", "pIC50": "≥ 8.30"}, {"compound": "Oc1ccc(Cl)c(Cl)c1[C@@H]1CC(=S)N(c2cnn3c2CCC3)C1", "note": "[Compound 159-1, (S)-4-(2,3-Dichloro-6-hydroxyphenyl)-1-(5,6-dihydro-4H-pyrrolo[1,2-b]pyrazol-3-yl)pyrrolidine-2-thione]", "pIC50": "8.00 to 8.30"}, {"compound": "O=C1C[C@@H](c2c(O)ccc(Cl)c2Cl)CN1CCCO", "note": "[Compound W1, reference compound]", "pIC50": "7.52 to 8.00"}, {"compound": "NCCCN1C[C@H](c2c(O)ccc(Cl)c2Cl)CC1=O", "note": "[Compound W2, reference compound]", "pIC50": "7.52 to 8.00"}, {"compound": "(S)-4-(2,3-Dichloro-6-hydroxyphenyl)-1-(1- methyl-1H-pyrazol-4-yl)pyrrolidine-2- thione [Compound 40-1]", "pIC50": "≥ 8.30"}]}, {"target": "human Kv1.3 (hKv1.3) channels (Homo sapiens (Human), UniProt P22001)", "test": "Electrophysiological (whole-cell patch clamp) determination of inhibitory activity on Kv1.3 channels", "type": "cell-based", "settings": "HEK-293T; compound concentration 10 nM; HEK293T cells expressing hKv1.3; peak current inhibition; read-out: 10 nM inhibition rate (Kv1.3)", "description": "as §1, §2, §3, §4, §5, §6, §7, §8, §9, §10, §11", "units": {"inhibition at 0.01 µM": "%"}, "values": [{"compound": "COc1ccc(N2CC(c3c(O)ccc(Cl)c3Cl)CC2=S)cn1", "note": "(racemic) [Compound 165, rac-4-(2,3-dichloro-6-hydroxyphenyl)-1-(6-methoxypyridin-3-yl)pyrrolidine-2-thione]", "inhibition at 0.01 µM": "0 to 5"}, {"compound": "COc1cc(N2CC(c3c(O)ccc(Cl)c3Cl)CC2=S)ccn1", "note": "(racemic) [Compound 166, rac-4-(2,3-dichloro-6-hydroxyphenyl)-1-(2-methoxypyridin-4-yl)pyrrolidine-2-thione]", "inhibition at 0.01 µM": "0 to 5"}, {"compound": "Cc1cc(N2CC(c3c(O)ccc(Cl)c3Cl)CC2=S)ccn1", "note": "(racemic) [Compound 167, rac-4-(2,3-dichloro-6-hydroxyphenyl)-1-(2-methylpyridin-4-yl)pyrrolidine-2-thione]", "inhibition at 0.01 µM": "0 to 5"}, {"compound": "O=C1N(CCCO)CC(c2c(O)ccc(Cl)c2Cl)C1(F)F", "note": "(racemic) [Compound 168, rac-4-(2,3-dichloro-6-hydroxyphenyl)-3,3-difluoro-1-(3-hydroxypropyl)pyrrolidin-2-one]", "inhibition at 0.01 µM": "< 0"}, {"compound": "O=C1N(CCCO)CC(c2c(O)ccc(Cl)c2Cl)C12CC2", "note": "(racemic) [Compound 169, rac-7-(2,3-dichloro-6-hydroxyphenyl)-5-(3-hydroxypropyl)-5-azaspiro[2.4]heptan-4-one]", "inhibition at 0.01 µM": "< 0"}, {"compound": "Cn1cncc1N1CC(c2c(O)ccc(Cl)c2Cl)CC1=S", "note": "(stereo not shown) [Compound 42, 4-(2,3-Dichloro-6-hydroxyphenyl)-1-(1-methyl-1H-imidazol-5-yl)pyrrolidine-2-thione]", "inhibition at 0.01 µM": "< 0"}, {"compound": "Cc1ncc(N2CC(c3c(O)ccc(Cl)c3Cl)CC2=S)s1", "note": "(stereo not shown) [Compound 43, 4-(2,3-Dichloro-6-hydroxyphenyl)-1-(2-methylthiazol-5-yl)pyrrolidine-2-thione]", "inhibition at 0.01 µM": "0 to 5"}, {"compound": "CS(=O)(=O)NCCCN1CC(c2c(O)ccc(Cl)c2Cl)CC1=O", "note": "(stereo not shown) [Compound 76, N-(3-(4-(2,3-Dichloro-6-hydroxyphenyl)-2-oxopyrrolidin-1-yl)propyl)methanesulfonamide]", "inhibition at 0.01 µM": "0 to 5"}, {"compound": "NS(=O)(=O)CCN1CC(c2c(O)ccc(Cl)c2Cl)CC1=O", "note": "(stereo not shown) [Compound 77, 2-(4-(2,3-Dichloro-6-hydroxyphenyl)-2-oxopyrrolidin-1-yl)ethane-1-sulfonamide]", "inhibition at 0.01 µM": "0 to 5"}, {"compound": "CS(=N)(=O)CCN1CC(c2c(O)ccc(Cl)c2Cl)CC1=O", "note": "(stereo not shown) [Compound 78, 4-(2,3-Dichloro-6-hydroxyphenyl)-1-(2-(S-methylsulfonylimino)ethyl) pyrrolidin-2-one]", "inhibition at 0.01 µM": "0 to 5"}, {"compound": "CS(=O)(=O)CCN1CC(c2c(O)ccc(Cl)c2Cl)CC1=O", "note": "(stereo not shown) [Compound 79, 4-(2,3-Dichloro-6-hydroxyphenyl)-1-(2-(methylsulfonyl)ethyl)pyrrolidin-2-one]", "inhibition at 0.01 µM": "< 0"}, {"compound": "C=Cn1cc(N2CC(c3c(O)ccc(Cl)c3Cl)CC2=O)cn1", "note": "(stereo not shown) [Compound 90, 4-(2,3-Dichloro-6-hydroxyphenyl)-1-(1-vinyl-1H-pyrazol-4-yl)pyrrolidin-2-one]", "inhibition at 0.01 µM": "50 to 75"}, {"compound": "O=C1CC(c2c(O)ccc(Cl)c2Cl)CN1C1CC2(CNC2)C1", "note": "(stereo not shown) [Compound 100, 4-(2,3-Dichloro-6-hydroxyphenyl)-1-(2-azaspiro[3.3]heptan-6-yl)pyrrolidin-2-one]", "inhibition at 0.01 µM": "≥ 75"}, {"compound": "NC1CC2(C1)CC(N1CC(c3c(O)ccc(Cl)c3Cl)CC1=O)C2", "note": "(stereo not shown) [Compound 101, 1-(6-Aminospiro[3.3]heptan-2-yl)-4-(2,3-dichloro-6-hydroxyphenyl) pyrrolidin-2-one]", "inhibition at 0.01 µM": "50 to 75"}, {"compound": "CONCCCN1CC(c2c(O)ccc(Cl)c2Cl)CC1=O", "note": "(stereo not shown) [Compound 104, 4-(2,3-Dichloro-6-hydroxyphenyl)-1-(3-(methoxyamino)propyl)pyrrolidin-2-one]", "inhibition at 0.01 µM": "0 to 5"}, {"compound": "CON(C)CCCN1CC(c2c(O)ccc(Cl)c2Cl)CC1=O", "note": "(stereo not shown) [Compound 105, 4-(2,3-Dichloro-6-hydroxyphenyl)-1-(3-(methoxy(methyl)amino)propyl) pyrrolidin-2-one]", "inhibition at 0.01 µM": "< 0"}, {"compound": "NC(=S)CCN1CC(c2c(O)ccc(Cl)c2Cl)CC1=O", "note": "(stereo not shown) [Compound 113, 3-(4-(2,3-Dichloro-6-hydroxyphenyl)-2-oxopyrrolidin-1-yl)propanethioamide]", "inhibition at 0.01 µM": "< 0"}, {"compound": "N=C(N)CCN1CC(c2c(O)ccc(Cl)c2Cl)CC1=O", "note": "(stereo not shown) [Compound 114, 3-(4-(2,3-Dichloro-6-hydroxyphenyl)-2-oxopyrrolidin-1-yl)propionimide]", "inhibition at 0.01 µM": "0 to 5"}, {"compound": "O=C(CCN1CC(c2c(O)ccc(Cl)c2Cl)CC1=O)NO", "note": "(stereo not shown) [Compound 115, 3-(4-(2,3-Dichloro-6-hydroxyphenyl)-2-oxopyrrolidin-1-yl)-N-hydroxypropionamide]", "inhibition at 0.01 µM": "25 to 50"}, {"compound": "CN(O)C(=O)CCN1CC(c2c(O)ccc(Cl)c2Cl)CC1=O", "note": "(stereo not shown) [Compound 116, 3-(4-(2,3-Dichloro-6-hydroxyphenyl)-2-oxopyrrolidin-1-yl)-N-hydroxy-N-methylpropionamide]", "inhibition at 0.01 µM": "< 0"}, {"compound": "CONC(=O)CCN1CC(c2c(O)ccc(Cl)c2Cl)CC1=O", "note": "(stereo not shown) [Compound 117, 3-(4-(2,3-Dichloro-6-hydroxyphenyl)-2-oxopyrrolidin-1-yl)-N-methoxypropionamide]", "inhibition at 0.01 µM": "0 to 5"}, {"compound": "O=C1CC(c2c(O)ccc(Cl)c2Cl)CN1CCNO", "note": "(stereo not shown) [Compound 118, 4-(2,3-Dichloro-6-hydroxyphenyl)-1-(2-(hydroxyamino)ethyl)pyrrolidin-2-one]", "inhibition at 0.01 µM": "25 to 50"}, {"compound": "NOCCN1CC(c2c(O)ccc(Cl)c2Cl)CC1=O", "note": "(stereo not shown) [Compound 119, 1-(2-(Aminooxy)ethyl)-4-(2,3-dichloro-6-hydroxyphenyl)pyrrolidin-2-one]", "inhibition at 0.01 µM": "0 to 5"}, {"compound": "NOCCCN1CC(c2c(O)ccc(Cl)c2Cl)CC1=O", "note": "(stereo not shown) [Compound 120, 1-(3-(Aminooxy)propyl)-4-(2,3-dichloro-6-hydroxyphenyl)pyrrolidin-2-one]", "inhibition at 0.01 µM": "< 0"}, {"compound": "O=C1C[C@@H](c2c(O)ccc(Cl)c2Cl)CN1CCCO", "note": "[Compound W1, reference compound]", "inhibition at 0.01 µM": "25 to 50"}]}]}
